Assays:
seeds of A12 = experiment: Sensitivity to low temperatures during germination on paper, pretreatment in GA3 solution; format: in vivo, Brassica oleracea; details: pretreatment 10 d 10 C. in the light in 1 mM GA3, then non-germinated seeds 5 days at 20° C. in the light
Description: (§1) Two replicates of 50 seeds per treatment were incubated at 5° C. or 10° C. in the light as described before for a germination test on paper. Incubation was in water or in a 1 mM solution of GA3. After 10 days seeds that had germinated were removed. The boxes with the remaining non-germinated seeds were then placed at 20° C. in the light. After a further 5 days the number of germinated seeds was counted. As a comparison seeds of both A12 and SL101 were germinated at 20° C. in the light without a pretreatment. Germination percentage of these seeds was counted after 10 days.

seeds of SL101 = experiment: as above; format: in vivo, Brassica oleracea
Description: as §1

Measured: Percentage of germination of seeds

C=C1C[C@]23C[C@@]1(O)CC[C@H]2[C@@]12C=C[C@H](O)[C@@](C)(C(=O)O1)[C@H]2[C@@H]3C(=O)O [GA3]
100%: seeds of A12 | seeds of SL101; pretreatment 10 d 5 C. in the light in 1 mM GA3, then non-germinated seeds 5 days at 20° C. in the light | seeds of SL101; pretreatment 10 d 10 C. in the light in 1 mM GA3, then non-germinated seeds 5 days at 20° C. in the light
